Source: PMC10385850, “Modified Hederagenin Derivatives Demonstrate Ex Vivo Anthelmintic Activity against Fasciola hepatica” (Pharmaceutics, 2023)
Entries after “also recorded” stand apart in the source; their conditions may differ.

Experiments:
[1] = test system: F. hepatica newly excysted juveniles (NEJs), Italian strain; experiment: Ex vivo screen against newly excysted juveniles (NEJs), phenotype and motility scoring; format: cell-based, Fasciola hepatica; conditions: 10 µM; for Average motility of 25 NEJs with 95% CI, 24 hours / Average motility of 25 NEJs with 95% CI, 48 hours / Average motility of 25 NEJs with 95% CI, 72 hours: motility score 1 good/normal to 5 no movement; for Average phenotype of 25 NEJs with 95% CI, 24 hours / Average phenotype of 25 NEJs with 95% CI, 48 hours / Average phenotype of 25 NEJs with 95% CI, 72 hours: ultrastructure score 1 normal to 6 dead or dissolved; for Activity against NEJs (first screen), in words: 72 h co-culture
Procedure: […] The NEJs were excysted from metacercariae and assayed at 10 μM (in 0.1% DMSO) final concentration alongside negative (0.1% DMSO) and positive (10 μM TCBZ, in 0.1% DMSO) controls as previously described. The MC and IVL compound series were screened separately.
The motility (1—good/normal; 2—moderate; 3—low; 4—very little; 5—no movement) and phenotypic (ultrastructural changes) scores were noted according to a previously described scoring matrix (Figure S1 and Table S2).

[2] = test system: wild strain adult F. hepatica; experiment: Ex vivo motility assay on adult liver flukes (wild strain); format: cell-based, Fasciola hepatica; conditions: 40 µM; for Effect on wild strain adult fluke motility, in words: 72 h; for Average motility of 4 parasites with 95% CI at 72 hour time point: wild strain adult flukes, score 1 good/normal to 6 no movement or dead
Procedure: Due to the high number of active molecules and a shortage of Italian strain adult liver flukes, the eleven hit compounds were screened for 72 h at 40 µM (in 0.4% DMSO) on wild strain adult F. hepatica (n = 4/condition) of unknown provenance (Table S3). The protocol for culturing and scoring (motility) the activity of these compounds was previously described (1—good/normal; 2—moderate; 3—resting (less than 10 s pulses of body and head), 4—apathetic (less than 2 s pulses of body and head), 5—paralysis and 6–no movement or dead worms). Six compounds were deemed active in these assays and were selected for further screening.

| SMILES | Average motility of 25 NEJs with 95% CI, 24 hours [1] | Average phenotype of 25 NEJs with 95% CI, 24 hours [1] | Average motility of 25 NEJs with 95% CI, 48 hours [1] | Average phenotype of 25 NEJs with 95% CI, 48 hours [1] | Average motility of 25 NEJs with 95% CI, 72 hours [1] | Average phenotype of 25 NEJs with 95% CI, 72 hours [1] | Activity against NEJs (first screen), in words [1] | Effect on wild strain adult fluke motility, in words [2] | Average motility of 4 parasites with 95% CI at 72 hour time point [2] |
| --- | --- | --- | --- | --- | --- | --- | --- | --- | --- |
| CC1(C)CC[C@]2(NC(=O)N3CCCC3)CC[C@]3(C)C(=CCC4[C@@]5(C)CCC6OC(C)(C)OC[C@@]6(C)C5CC[C@]43C)C2C1 (stereo partly drawn) [MC023, N-((4aR,6aR,6bS,8aS,14bR)-2,2,4a,6a,6b,11,11,14b-Octamethyl-4a,5,6,6a,6b,7,8,9,10,11,12,12a,14,14a, 14b,15,16,16a-octadecahydro-4H-piceno[3,4-d][1,3]dioxin-8a(4bH)-yl)-pyrolidine-1-carboxamide] | 5.00 (5.0;5.0) | 5.00 (5.0;5.0) | 5.00 (5.0;5.0) | 5.00 (5.0;5.0) | 5.00 (5.0;5.0) | 5.00 (5.0;5.0) | maximal alterations to both phenotype/ultrastructure and motility | less severe motility defects | 4.75 (3.5;5.9) |
| CC1(C)CC[C@]2(NC(N)=O)CC[C@]3(C)C(=CCC4[C@@]5(C)CCC6OC(C)(C)OC[C@@]6(C)C5CC[C@]43C)C2C1 (stereo partly drawn) [MC024, 1-((4aR,6aR,6bS,8aS,14bR)-2,2,4a,6a,6b,11,11,14b-Octamethyl-4a,5,6,6a,6b,7,8,9,10,11, 12, 12a,14,14a, 14b,15,16,16a-octadecahydro-4H-piceno[3,4-d][1,3]dioxin-8a(4bH)-yl)urea] | 5.00 (5.0;5.0) | 5.00 (5.0;5.0) | 5.00 (5.0;5.0) | 5.00 (5.0;5.0) | 5.00 (5.0;5.0) | 5.00 (5.0;5.0) | maximal alterations to both phenotype/ultrastructure and motility | less severe motility defects | 4.25 (3.2;5.7) |
| CC1(C)CC[C@]2(NC(=O)N[C@H]3C(O)O[C@H](CO)[C@@H](O)[C@@H]3O)CC[C@]3(C)C(=CCC4[C@@]5(C)CCC6OC(C)(C)OC[C@@]6(C)C5CC[C@]43C)C2C1 (stereo partly drawn) [MC028, 1-((4aR,6aR,6bS,8aS,14bR)-2,2,4a,6a,6b,11,11,14b-Octamethyl-4a,5,6,6a,6b,7,8,9,10,11, 12,12a,14,14a, 14b,15,16,16a-octadecahydro-4H-piceno[3,4-d][1,3]dioxin-8a(4bH)-yl)-3-((3R,4R,5S,6R)-2,4,5-tri-hydroxy-6-(hydroxymethyl)tetrahydro-2H-pyran-3-yl)urea] | 2.32 (1.8;2.7) | 2.24 (1.6;2.8) | 3.52 (2.9;4) | 2.76 (2;3.4) | 2.60 (1.9;3.2) | 2.72 (2;3.4) | none reached the level required | – | – |
| CC1(C)CC[C@]2(NC(=O)N[C@H]3C(O)O[C@H](CO)[C@@H](O)[C@@H]3O)CC[C@]3(C)C(=CCC4[C@@]5(C)CC[C@H](O)[C@@](C)(CO)C5CC[C@]43C)C2C1 (stereo partly drawn) [MC030, 1-((4aS,6aS,6bR,9R,10S,12aR)-10-Hydroxy-9-(hydroxymethyl)-2,2,6a,6b,9,12a-hexa-methyl-1,3,4,5,6,6a,6b,7,8,8a,9,10,11,12,12a,12b,13,14b-octadecahydropicen-4a(2H)-yl)-3-((3R,4R,5S,6R)-2,4,5-tri-hydroxy-6-(hydroxymethyl)tetrahydro-2H-pyran-3-yl)urea] | 3.20 (2.6;3.7) | 3.00 (2.2;3.7) | 3.92 (3.5;4.2) | 3.60 (2.9;4.2) | 3.96 (3.4;4.4) | 4.00 (3.2;4.7) | none reached the level required; also recorded: low activity | – | – |
| CC(=O)OC[C@]12CCC(C)(C)CC1C1=CCC3[C@@]4(C)CCC5OC(C)(C)OC[C@@]5(C)C4CC[C@@]3(C)[C@]1(C)CC2 (stereo partly drawn) [MC031, ((4aR,6aR,6bS,8aS,14bR)-2,2,4a,6a,6b,11,11,14b-Octamethyl-4a,5,6,6a,6b,7,8,9,10,11,12,12a,14,14a, 14b,15,16,16a-octadecahydro-4H-piceno[3,4-d][1,3]dioxin-8a(4bH)-yl)methyl acetate] | 2.96 (2.4;3.4) | 2.72 (1.9;3.4) | 2.76 (2;3.4) | 3.64 (2.9;4.3) | 3.44 (2.6;4.2) | 4.80 (4.2;5.3) | – | – | – |
| CCCCCCCCCCCCCCCC(=O)OC[C@]12CCC(C)(C)CC1C1=CCC3[C@@]4(C)CCC5OC(C)(C)OC[C@@]5(C)C4CC[C@@]3(C)[C@]1(C)CC2 (stereo partly drawn) [MC032, ((4aR,6aR,6bS,8aS,14bR)-2,2,4a,6a,6b,11,11,14b-Octamethyl-4a,5,6,6a,6b,7,8,9,10,11,12,12a,14,14a, 14b,15,16,16a-octadecahydro-4H-piceno[3,4-d][1,3]dioxin-8a(4bH)-yl)methyl palmitate] | 3.20 (2.6;3.7) | 2.52 (1.7;3.3) | 3.12 (2.5;3.6) | 2.64 (1.8;3.4) | 3.12 (2.5;3.7) | 2.80 (2;3.5) | – | – | – |
| CC1(C)CC[C@]2(NC(=O)N3CCC[C@H]3C(=O)O)CC[C@]3(C)C(=CCC4[C@@]5(C)CCC6OC(C)(C)OC[C@@]6(C)C5CC[C@]43C)C2C1 (stereo partly drawn) [MC033, (((4aR,6aR,6bS,8aS,14bR)-2,2,4a,6a,6b,11,11,14b-Octamethyl-4a,5,6,6a,6b,7,8,9,10,11,12,12a,14,14a, 14b,15,16,16a-octadecahydro-4H-piceno[3,4-d][1,3]dioxin-8a(4bH)-yl)carbam-oyl)-L-proline] | 3.80 (3.4;4.1) | 3.28 (2.7;3.8) | 3.88 (3.5;4.2) | 3.44 (2.8;4) | 3.76 (3.2;4.2) | 4.04 (3.3;4.6) | – | – | – |
| CCCCCCCCCCCCCCCC(=O)OC[C@]12CCC(C)(C)CC1C1=CCC3[C@@]4(C)CC[C@H](O)[C@@](C)(CO)C4CC[C@@]3(C)[C@]1(C)CC2 (stereo partly drawn) [MC038, ((4aS,6aS,6bR,9R,10S,12aR)-10-Hydroxy-9-(hydroxymethyl)-2,2,6a,6b,9,12a-hexamethyl-1,3,4,5,6,6a, 6b,7,8,8a,9,10,11,12,12a,12b,13,14b-octadecahydropicen-4a(2H)-yl)methyl palmitate] | 2.96 (2.3;3.5) | 2.32 (1.7;2.9) | 2.80 (2.2;3.3) | 2.92 (2.1;3.6) | 3.32 (2.7;3.8) | 3.48 (2.7;4.2) | – | – | – |
| COC(=O)[C@H](Cc1c[nH]cn1)NC(=O)N[C@]12CCC(C)(C)CC1C1=CCC3[C@@]4(C)CC[C@@H]5OC(C)(C)OC[C@@]5(C)C4CC[C@@]3(C)[C@]1(C)CC2 (stereo partly drawn) [MC048, Methyl (((4aR,6aR,6bS,8aS,14bR,16aS)-2,2,4a,6a,6b,11,11,14b-octamethyl-4a,5,6,6a,6b,7,8,9,10,11,12, 12a,14,14a,14b,15,16,16a-octadecahydro-4H-piceno[3,4-d][1,3]dioxin-8a(4bH)-yl)carbamoyl)-L-histidinate] | 1.40 (1.2;1.5) | 1.44 (1.2;1.6) | – | – | 1.96 (1.8;2) | 1.88 (1.7;2) | – | – | – |
| CN(C[C@H](O)[C@@H](O)[C@H](O)[C@H](O)CO)C(=O)N[C@]12CCC(C)(C)CC1C1=CCC3[C@@]4(C)CC[C@@H]5OC(C)(C)OC[C@@]5(C)C4CC[C@@]3(C)[C@]1(C)CC2 (stereo partly drawn) [MC059, 1-Methyl-3-((4aR,6aR,6bS,8aS,14bR,16aS)-2,2,4a,6a,6b,11,11,14b-octamethyl-4a,5,6,6a, 6b,7,8,9,10,11, 12,12a,14,14a,14b,15,16,16a-octadecahydro-4H-piceno[3,4-d][1,3]dioxin-8a(4bH)-yl)-1-((2S,3R,4R,5R)-2,3,4,5,6-pentahydroxyhexyl)urea] | 2.84 (2.3;3.3) | 2.68 (1.9;3.3) | 3.20 (2.7;3.6) | 3.04 (2.3;3.7) | 3.20 (2.6;3.7) | 3.88 (3.2;4.4) | none reached the level required | – | – |
